# Source: patent US6713247B1, “Human CNS cell lines and methods of use therefor” (Signal Pharmaceuticials, Inc., priority 1996, dated 2004)
# Experiments:
# [1] = system: Human CNS Line B4; assay: Effects of growth conditions on neuronal differentiation (morphology), Human CNS Line B4 (Table 3); assay type: cell-based; settings: clone B4, added to tet
# Description: (§1) To promote further neuronal maturation the effects of additional differentiating agents on clone B4 were examined.
# [2] = system: clone B4; assay: Immunoreactivity of clone B4 (BrdU, v-myc, MAP2a/b, GFAP, tau, NR1); assay type: cell-based, human
# Description: as §1
# [3] = system: differentiated clone B4
# Description: B4 cells were differentiated by growth with tet+RA for 1 day, followed by tet, high K^+, NT-3 and BDNF for 6 days.
# [4] = system: clone E5; assay: Immunoreactivity of clone E5; assay type: cell-based, human; settings: clone E5, after differentiation
# Description: Clone E5 is an immature multi-potent cell. Clone E5 is multi-potential and likely represents an immortalized stem cell.
# [5] = system: clone C10; assay: Effects of EGF and PDGF on proliferation and survival, clone C10; assay type: cell-based, human; settings: EGF 40 ng/mL, PDGF 20 ng/mL
# Protocol: (§2) EGF and PDGF Enhance Proliferation Rate and Cell Survival. To facilitate the expansion of the human CNS clones, we identified factors that increase the proliferation rate and/or cell survival. To examine the effects of EGF and PDGF on the proliferation and survival of the human CNS clones, 40 ng/mL EGF, 20 ng/mL PDGF or both were added to the standard growth medium, which already contained FGF-2 and 50% CM, and total cell number and BrdU uptake and incorporation were assessed as described above. For clone C2, EGF or PDGF addition increased the total cell number (FIG. 11A) by approximately 2-fold. This increase in cell number was due to enhanced cell viability (decreased cell death), since there were only slight increases in proliferation rate (assessed by BrdU uptake and incorporation, FIG. 11B). […] In the case of clone C10, EGF (but not PDGF) addition increased the total cell number (FIG. 12A) by approximately 40%. […] This increase in cell number was due, at least in part, to enhanced proliferation rates; BrdU uptake and incorporation increase about 2-fold with EGF or EGF+PDGF addition (FIG. 12B), and doubling times (based on cell counts as a function of days in vitro, data not shown) decreased from 3 days (no EGF or PDGF addition) to 2 days (EGF+PDGF addition). […]
# [6] = system: clone C2; assay: Effects of EGF and PDGF on proliferation and survival, clone C2; assay type: cell-based, human; settings: added to growth medium with FGF-2 and 50% CM, EGF 40 ng/mL, PDGF 20 ng/mL
# Protocol: as §2
molecule,measurement,setting,value
"CCCCCCCCCCCCCC(=O)O[C@@H]1[C@@H](C)[C@@]2(O)[C@@H](C=C(CO)C[C@]3(O)C(=O)C(C)=C[C@@H]23)[C@@H]2C(C)(C)[C@]12OC(C)=O [PMA, phorbol 12-myristate 13-acetate]",effect on neuronal differentiation (morphology and immunocytochemical staining),[1],prevented tet from inducing neuronal differentiation
same,effect on cell lineage (MAP2a/b and GFAP immunoreactivities),[2],strongly promoted astrocytic differentiation
"Z-Val-Ala-Asp-Ch2F [Z-VAD, reference compound]",effect on TNFα-induced increase in DNA laddering,"[3]; Z-VAD at 80 μM, TNFα 10 ng/mL",blocked the increase in DNA laddering
CN(C)[C@@H]1C(O)=C(C(N)=O)C(=O)[C@@]2(O)C(O)=C3C(=O)c4c(O)cccc4[C@@](C)(O)[C@H]3C[C@@H]12 [tetracycline],cells stained for GFAP,[4],about 20%
same,cells stained for MAP2a/b,[4],about 50%
TNFα,DNA laddering upon gel analysis,[3]; TNFα 10 ng/mL,increased DNA laddering
same,percentage of apoptotic nuclei,[3]; TNFα 10 ng/mL,increased
same,effect on neuronal viability,[3]; TNFα 0.05 or 0.2 ng/mL,little effect on neuronal viability
PDGF: human recombinant platelet derived growth factor A/B,effect on total cell number,[5],not
same,increase in total cell number,[6],approximately 2 fold
